Earlier results as cited in article PMC5117885 (Drug Design, Development and Therapy, 2016).

Legend:
[1] = phase 3 ACCELERATE trial
[2] = not given; remark: listed apart in the source

Structure (SMILES): CCC(CC)CC1(C(=O)Nc2ccccc2SC(=O)C(C)C)CCCCC1 [Dalcetrapib]
- Effect on HDL-C levels: increased HDL-C levels
- Reduction of cardiovascular events compared to placebo group: did not demonstrate a significant reduction of cardiovascular events

Structure (SMILES): Cc1cc(C)c2c(c1)[C@@H](N(Cc1cc(C(F)(F)F)cc(C(F)(F)F)c1)c1nnn(C)n1)CCCN2C[C@H]1CC[C@H](C(=O)O)CC1 [Evacetrapib]
- Efficacy [1]: did not improve the efficacy

Structure (SMILES): CCOC(=O)N1c2ccc(C(F)(F)F)cc2[C@@H](N(Cc2cc(C(F)(F)F)cc(C(F)(F)F)c2)C(=O)OC)C[C@H]1CC [Torcetrapib]
- Effect on blood pressure and aldosterone [2]: Elevation of BP caused by torcetrapib was associated with a substantial increase of aldosterone
- Effect on HDL-C and LDL-C ([2]; ILLUMINATE trial): HDL-C increase and LDL-C decrease
- Risk of death and cardiac events ([2]; ILLUMINATE trial, patients receiving torcetrapib): significantly increased risk of death and cardiac events
